Starred links: 1 amine or outer side, 2 acyl side, 3 side chain; linkers in the order of their positions; H or OH if unused. Positions of bridges follow the written chain, without caps; N, C: chain ends. Non-standard residues stand in square brackets, D forms with d. Residues, ends and D or L forms follow the SMILES beside them. *: point of attachment. hTyr(3S-OH,4S-OH,3'-OSO3H) = N[C@H](C(=O)O)[C@H](O)[C@@H](O)c1ccc(O)c(OS(=O)(=O)O)c1; Orn(4R-OH,5R-OH) = O=C([C@H](C[C@@H](O)[C@@H](O)N[*:3])N[*:1])[*:2]; Pro(3S-OH,4S-Me) = C[C@H]1CN[C@H](C(=O)O)[C@H]1O; X1 = CCCCCOc1ccc(-c2cc(-c3ccc(C(=O)*)cc3)no2)cc1; Gln(3R-OH) = NC(=O)C[C@@H](O)[C@H](N)C(=O)O; Hyp = O=C(O)[C@@H]1C[C@@H](O)CN1
Key:
TM5 (CaCdr1p V674F) = assay: MIC, liquid microdilution; assay type: cell-based, Saccharomyces cerevisiae; settings: 48 h
EL1/TM2 (CaCdr1p G547R) = assay: MIC, liquid microdilution; assay type: cell-based, Saccharomyces cerevisiae; settings: 48 h
EL4-2 (CaCdr1p Q1226R) = assay: MIC, liquid microdilution; assay type: cell-based, Saccharomyces cerevisiae; settings: 48 h
AD/pABC3 (Control) = assay: MIC, liquid microdilution; assay type: cell-based, Saccharomyces cerevisiae; settings: 48 h
EL4-1 (CaCdr1p Q1226K) = assay: MIC, liquid microdilution; assay type: cell-based, Saccharomyces cerevisiae; settings: 48 h
EL6 (CaCdr1p Q1445R) = assay: MIC, liquid microdilution; assay type: cell-based, Saccharomyces cerevisiae; settings: 48 h
EL3 (CaCdr1p Q714K) = assay: MIC, liquid microdilution; assay type: cell-based, Saccharomyces cerevisiae; settings: 48 h
[1] = system: AD/CDR1 (Wild type CaCdr1p); assay: MIC, liquid microdilution; assay type: cell-based, Saccharomyces cerevisiae; settings: 48 h
[2] = system: AD/CDR1 (Wild type CaCdr1p; AD/CaCDR1B); assay: Agarose diffusion FLC chemosensitization assay; assay type: cell-based, Saccharomyces cerevisiae; settings: ~6 nmole/disk, agarose diffusion, FLC 40 μg ml^−1
Cdr1p ATPase = Cdr1p ATPase (Candida albicans, UniProt P43071); assay: CaCdr1p ATPase inhibition assay; assay type: biochemical; settings: read-out: IC50 Cdr1p ATPase; wild type CaCdr1p, oligomycin-sensitive ATPase, pH 7.5
[3] = TM5, V674F, milbemycins and micafungin, I95, CSM pH 7.0, 30°C
[4] = EL1/TM2, G547R, milbemycins and micafungin, I95, CSM pH 7.0, 30°C
[5] = EL4-2, Q1226R, milbemycins and micafungin, I95, CSM pH 7.0, 30°C
[6] = AD/pABC3, Control, milbemycins and micafungin, I95, CSM pH 7.0, 30°C
[7] = EL4-1, Q1226K, milbemycins and micafungin, I95, CSM pH 7.0, 30°C
[8] = EL6, Q1445R, milbemycins and micafungin, I95, CSM pH 7.0, 30°C
[9] = EL3, Q714K, milbemycins and micafungin, I95, CSM pH 7.0, 30°C
[10] = AD/CDR1, Wild type, milbemycins and micafungin, I95, CSM pH 7.0, 30°C

Sequence of Cdr1p ATPase (P43071 whole entry): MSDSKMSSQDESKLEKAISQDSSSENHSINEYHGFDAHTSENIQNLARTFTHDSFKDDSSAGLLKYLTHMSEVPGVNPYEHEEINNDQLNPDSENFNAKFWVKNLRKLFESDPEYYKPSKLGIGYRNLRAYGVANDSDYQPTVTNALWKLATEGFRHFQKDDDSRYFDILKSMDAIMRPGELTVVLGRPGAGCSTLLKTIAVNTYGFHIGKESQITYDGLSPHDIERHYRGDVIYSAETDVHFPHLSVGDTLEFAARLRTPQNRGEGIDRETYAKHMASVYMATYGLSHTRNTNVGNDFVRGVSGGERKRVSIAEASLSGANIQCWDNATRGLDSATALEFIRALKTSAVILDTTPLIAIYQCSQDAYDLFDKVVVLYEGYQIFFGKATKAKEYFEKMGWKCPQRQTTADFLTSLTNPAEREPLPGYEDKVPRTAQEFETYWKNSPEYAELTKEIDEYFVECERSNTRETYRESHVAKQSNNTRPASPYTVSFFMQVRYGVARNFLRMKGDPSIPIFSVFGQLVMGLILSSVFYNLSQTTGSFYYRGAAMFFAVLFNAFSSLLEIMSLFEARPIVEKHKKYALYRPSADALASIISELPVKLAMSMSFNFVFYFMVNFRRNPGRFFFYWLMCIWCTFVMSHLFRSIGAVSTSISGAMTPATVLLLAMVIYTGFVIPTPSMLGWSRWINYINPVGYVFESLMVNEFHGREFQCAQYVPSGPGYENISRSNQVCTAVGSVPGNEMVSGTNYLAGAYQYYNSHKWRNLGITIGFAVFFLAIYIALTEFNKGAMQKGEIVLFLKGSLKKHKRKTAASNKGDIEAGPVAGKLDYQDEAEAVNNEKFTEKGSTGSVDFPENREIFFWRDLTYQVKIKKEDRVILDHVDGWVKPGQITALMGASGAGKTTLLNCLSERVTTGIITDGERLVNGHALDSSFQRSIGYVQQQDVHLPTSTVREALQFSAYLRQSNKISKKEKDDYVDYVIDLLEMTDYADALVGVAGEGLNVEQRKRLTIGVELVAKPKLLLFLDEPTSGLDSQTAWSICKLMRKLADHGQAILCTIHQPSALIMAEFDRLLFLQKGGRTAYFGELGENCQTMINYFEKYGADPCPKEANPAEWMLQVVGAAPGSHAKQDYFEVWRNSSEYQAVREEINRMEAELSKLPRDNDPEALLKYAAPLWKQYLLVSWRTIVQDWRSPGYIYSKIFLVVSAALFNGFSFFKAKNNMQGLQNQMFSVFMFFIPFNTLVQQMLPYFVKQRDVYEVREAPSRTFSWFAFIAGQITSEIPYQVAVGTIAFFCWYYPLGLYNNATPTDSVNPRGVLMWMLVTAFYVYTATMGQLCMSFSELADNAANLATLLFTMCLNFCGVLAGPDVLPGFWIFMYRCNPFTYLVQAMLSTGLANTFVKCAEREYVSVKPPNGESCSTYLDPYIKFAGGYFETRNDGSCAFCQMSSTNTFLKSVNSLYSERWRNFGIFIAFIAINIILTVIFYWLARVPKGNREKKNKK

Compound	MIC (TM5 (CaCdr1p V674F); Saccharomyces cerevisiae, pH 7)	MIC (EL1/TM2 (CaCdr1p G547R); Saccharomyces cerevisiae, pH 7)	MIC (EL4-2 (CaCdr1p Q1226R); Saccharomyces cerevisiae, pH 7)	MIC (AD/pABC3 (Control); Saccharomyces cerevisiae, pH 7)	MIC (EL4-1 (CaCdr1p Q1226K); Saccharomyces cerevisiae, pH 7)	MIC (EL6 (CaCdr1p Q1445R); Saccharomyces cerevisiae, pH 7)	MIC (EL3 (CaCdr1p Q714K); Saccharomyces cerevisiae, pH 7)	MIC ([1]; Saccharomyces cerevisiae, pH 7)	other results
C=CC[C@@H]1/C=C(\C)C[C@H](C)C[C@H](OC)[C@H]2O[C@@](O)(C(=O)C(=O)N3CCCC[C@H]3C(=O)O[C@H](/C(C)=C/[C@@H]3CC[C@@H](O)[C@H](OC)C3)[C@H](C)[C@@H](O)CC1=O)[C@H](C)C[C@@H]2OC [FK506]	40 mg/L	40 mg/L	40 mg/L	0.313 mg/L	40 mg/L	40 mg/L	40 mg/L	40 mg/L	
Milbemycin α26									MIC (TM5 (CaCdr1p V674F); [3]): 8 mg/L; MIC (EL1/TM2 (CaCdr1p G547R); [4]): 8 mg/L; MIC (EL4-2 (CaCdr1p Q1226R); [5]): 8 mg/L; MIC (AD/pABC3 (Control); [6]): 8 mg/L; MIC (EL4-1 (CaCdr1p Q1226K); [7]): 8 mg/L; MIC (EL6 (CaCdr1p Q1445R); [8]): 8 mg/L; MIC (EL3 (CaCdr1p Q714K); [9]): 8 mg/L; MIC [1, 10]: 8 mg/L
Clc1ccc(COC(Cn2ccnc2)c2ccc(Cl)cc2Cl)c(Cl)c1 (stereo not drawn) [Miconazole]	2 mg/L	1 mg/L	3 mg/L	0.156 mg/L	1 mg/L	3 mg/L	2.5 mg/L	2.5 mg/L	
Enniatin									MIC (TM5 (CaCdr1p V674F); TM5, V674F, cycloheximide, enniatin and FK506, CSM pH 7.0, 30°C): 4 mg/L; MIC (EL1/TM2 (CaCdr1p G547R); EL1/TM2, G547R, cycloheximide, enniatin and FK506, CSM pH 7.0, 30°C): 4 mg/L; MIC (EL4-2 (CaCdr1p Q1226R); EL4-2, Q1226R, cycloheximide, enniatin and FK506, CSM pH 7.0, 30°C): 4 mg/L; MIC (AD/pABC3 (Control); AD/pABC3, Control, cycloheximide, enniatin and FK506, CSM pH 7.0, 30°C): 4 mg/L; MIC (EL4-1 (CaCdr1p Q1226K); EL4-1, Q1226K, cycloheximide, enniatin and FK506, CSM pH 7.0, 30°C): 4 mg/L; MIC (EL6 (CaCdr1p Q1445R); EL6, Q1445R, cycloheximide, enniatin and FK506, CSM pH 7.0, 30°C): 4 mg/L; MIC (EL3 (CaCdr1p Q714K); EL3, Q714K, cycloheximide, enniatin and FK506, CSM pH 7.0, 30°C): 4 mg/L; MIC ([1]; AD/CDR1, Wild type, cycloheximide, enniatin and FK506, CSM pH 7.0, 30°C): 4 mg/L
CC1=C[C@H]2C(=O)O[C@H]3C[C@@H](C/C=C(\C)C[C@@H](C)/C=C/C=C(\C)[C@]2(O)[C@H](O)[C@@H]1O)O[C@@]1(CC[C@H](C)[C@@H](C)O1)C3 [Milbemycin β11]									MIC (TM5 (CaCdr1p V674F); [3]): >8 mg/L; MIC (EL1/TM2 (CaCdr1p G547R); [4]): >8 mg/L; MIC (EL4-2 (CaCdr1p Q1226R); [5]): >8 mg/L; MIC (AD/pABC3 (Control); [6]): >8 mg/L; MIC (EL4-1 (CaCdr1p Q1226K); [7]): >8 mg/L; MIC (EL6 (CaCdr1p Q1445R); [8]): >8 mg/L; MIC (EL3 (CaCdr1p Q714K); [9]): >8 mg/L; MIC [1, 10]: >8 mg/L
CCCCCOc1ccc(-c2cc(-c3ccc(C(=O)N[C@H]4C[C@@H](O)[C@@H](O)NC(=O)[C@@H]5[C@@H](O)[C@@H](C)CN5C(=O)[C@H]([C@H](O)CC(N)=O)NC(=O)[C@H]([C@H](O)[C@@H](O)c5ccc(O)c(OS(=O)(=O)O)c5)NC(=O)[C@@H]5C[C@@H](O)CN5C(=O)[C@H]([C@@H](C)O)NC4=O)cc3)no2)cc1 [Micafungin] (X1-[Orn(4R-OH,5R-OH)]T[Hyp][hTyr(3S-OH,4S-OH,3'-OSO3H)][Gln(3R-OH)][Pro(3S-OH,4S-Me)]; lactam 1-C)	0.125 mg/L	0.125 mg/L	0.125 mg/L	0.25 mg/L	0.125 mg/L			0.125 mg/L	
CC(C)=CC(=O)OCC1=C[C@H]2C(=O)O[C@H]3C[C@@H](C/C=C(\C)C[C@@H](C)/C=C/C=C4\CO[C@H]([C@@H]1O)[C@@]42O)O[C@@]1(CC[C@H](C)[C@@H](C)O1)C3 [Milbemycin α11]									MIC (TM5 (CaCdr1p V674F); [3]): >8 mg/L; MIC (EL1/TM2 (CaCdr1p G547R); [4]): 8 mg/L; MIC (EL4-2 (CaCdr1p Q1226R); [5]): 4 mg/L; MIC (AD/pABC3 (Control); [6]): 4 mg/L; MIC (EL4-1 (CaCdr1p Q1226K); [7]): 8 mg/L; MIC (EL6 (CaCdr1p Q1445R); [8]): 4 mg/L; MIC (EL3 (CaCdr1p Q714K); [9]): 4 mg/L; MIC [1, 10]: 4 mg/L
D-NH2-FFKWQR(Mtr)KK-CONH2									chemosensitization of cells overexpressing CaCdr1p to FLC [2]: chemosensitizing activity
CC(=O)N1CCN(c2ccc(OCC3COC(Cn4ccnc4)(c4ccc(Cl)cc4Cl)O3)cc2)CC1 (stereo not drawn) [Ketoconazole]	3 mg/L	1 mg/L	4 mg/L	0.156 mg/L	1 mg/L	4 mg/L	4 mg/L	4 mg/L	
COC(=O)c1ccccc1-c1c2ccc(=N)cc-2oc2cc(N)ccc12 [Rhodamine 123]	150 µM	150 µM	200 µM	8 µM	150 µM	200 µM	200 µM	300 µM	
D-NH2-FFKWQRRR-CONH2 + Mtr [RC21]									IC50 (Cdr1p ATPase): 1.3 µM

— article PMC3418399 (Molecular microbiology, 2012)
